US12342819B2, “Elasnin, a bacteriostatic agent that has potent antibiofilm activities against both mono- and multi-species biofilm” (The Hong Kong University of Science and Technology, priority 2019, dated 2025)
Values after ≈ are worked out from the molar mass of the structure shown. Values joined by “and” are separate entries in the source; they are usually repeats but may differ in a detail not shown here. Identical values can stand only once.

Columns and labels:
chymotrypsin = settings: cited from earlier work
MRSA ATCC 43300 [1] = assay: Concentration response curve study (CFU counting of planktonic cells); format: cell-based, Methicillin-resistant Staphylococcus aureus; settings: 24 hours; vancomycin 0 to 50 μg/ml, elasnin 0 to 100 μg/ml
Description: MRSA ATCC 43300 was used for concentration response curve study. 4×10^5 CFU/ml of exponentially growing MRSA was inoculated into MHB with various concentrations of elasnin and vancomycin in 15 ml falcon tubes. The tubes were incubated at 37° C. on a rotary shaker for 24 hours; 1 ml of culture broth in each tube was diluted with MHB and 1 ml diluted bacteria was plated on MHA plates for the CFU counting. Each concentration was plated on two plates and the experiments were repeated 3-times.

pancreatic elastase = settings: cited from earlier work
MRSA ATCC 43300 [2] = assay: MBEC assay (eradication of pre-formed biofilm, MTT); format: cell-based, Methicillin-resistant Staphylococcus aureus; settings: concentration eradicating 50% of mature biofilm within 24 hours
Description: (§1) Minimum biofilm inhibitory concentrations (MBICs) and minimum biofilm eradication concentrations (MBECs) were determined as previously described (30, 31).
(§2) The ability of Elasnin to eradicate pre-formed mature biofilm was tested through a MBEC assay. Similar to MBIC assay, an overnight culture of testing strains was incubated for 24 hours in 96-well cell culture plates but without adding Elasnin to form biofilm. Formed biofilm was then rinsed twice by 1×PBS and challenged with a series concentration of Elasnin (diluted with LB and 0.5% glucose) and incubated for another 24 hours at 37° C. After incubation, each well was rinsed twice by 1×PBS and MTT assay was conducted to measure viable cells in remaining biofilm.

E. coli ATCC 25922 [3] = assay: MBEC assay; format: cell-based; settings: viability of biofilm cells constant as concentration increased
Description: as §1, §2

S. aureus B04 [4] = assay: MBEC assay; format: cell-based; settings: S. aureus B04, 50% eradication of mature biofilm
Description: as §1, §2

P. aeruginosa PAO1 [5] = assay: MBEC assay; format: cell-based; settings: viability of biofilm cells constant as concentration increased
Description: as §1, §2

S. aureus ATCC 25923 [6] = assay: MBEC assay; format: cell-based; settings: S. aureus ATCC 25923, 50% eradication of mature biofilm
Description: as §1, §2

Bacillus subtilis 168 [7] = assay: MBEC assay; format: cell-based; settings: 50% eradication of mature biofilm
Description: as §1, §2

E. coli ATCC 25922 [8] = assay: MBIC assay; format: cell-based; settings: even at 100 μg/ml
Description: as §1
(§3) An overnight culture of the testing strains was diluted into approximately 10^7 with LB and 0.5% glucose and treated with various concentrations of Elasnin in 96-well cell culture plates. Culture broth was then incubated at 37° C. for 24 hours and rinsed twice by 1×PBS to remove non-adhering and planktonic cells. After the wash, MTT staining assay was conducted to measure viable cells in the biofilm since the MTT can react with activated succinate dehydrogenase in viable cell mitochondria to form blue violet formazan, which can be read at 570 nm after being dissolved in DMSO.

S. aureus B04 [9] = assay: MBIC assay; format: cell-based; settings: S. aureus B04, 90% reduction of biofilm formation
Description: as §1, §3

P. aeruginosa PAO1 [10] = assay: MBIC assay; format: cell-based; settings: even at 100 μg/ml
Description: as §1, §3

S. aureus ATCC 25923 [11] = assay: MBIC assay; format: cell-based; settings: S. aureus ATCC 25923, 90% reduction of biofilm formation
Description: as §1, §3

Bacillus subtilis 168 [12] = assay: MBIC assay; format: cell-based
Description: as §1, §3

MRSA ATCC 43300 [13] = assay: MBIC assay (biofilm inhibition, MTT); format: cell-based, Methicillin-resistant Staphylococcus aureus; settings: minimum concentration inhibiting 90% biofilm formation
Description: as §1, §3

MRSA biofilms = assay: CLSM observation with biofilm cell and matrix staining; format: cell-based, Methicillin-resistant Staphylococcus aureus; settings: elasnin 4 μg/mL
Description: Biofilms were grown on glass cover slides as described for the MBIC and MBEC assays. Treated biofilms were then rinsed twice with 1×PBS and stained with FilmTracer™ FM® 1-43 green biofilm cell stain and FilmTracer™ SYPRO® Ruby Biofilm Matrix Stain at room temperature for 30 min in the dark. Leica Sp8 Confocal Microscope was employed to observe cells and matrix in the biofilm at 488 nm.

[14] = target: T1, human granulocyte elastase (Homo sapiens, UniProt P08246); settings: cited from earlier work
T1 sequence (P08246 30-267): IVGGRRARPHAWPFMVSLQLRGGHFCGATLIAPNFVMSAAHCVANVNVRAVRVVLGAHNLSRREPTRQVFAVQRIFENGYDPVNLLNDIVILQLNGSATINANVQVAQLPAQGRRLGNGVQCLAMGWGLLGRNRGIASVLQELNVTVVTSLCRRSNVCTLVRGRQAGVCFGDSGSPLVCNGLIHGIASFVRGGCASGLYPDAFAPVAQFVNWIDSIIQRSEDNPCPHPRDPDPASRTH

MRSA ATCC 43300 [15] = assay: Minimum bactericidal concentration (MBC); format: cell-based, Methicillin-resistant Staphylococcus aureus
Description: (§4) Minimum inhibitory concentrations (MICs) and minimum bactericidal concentrations (MBCs) were determined with MRSA ATCC 43300 and E. coli ATCC 25922, according to the Clinical and Laboratory Standards Institute guideline CLSI M100 (2018). Approximately 10^5 CFU/ml overnight culture of the bacteria strains were inoculated into MHB and treated with series concentrations of Elasnin (or crude extracts and antibiotics). […] MBCs were measured following the MIC assay by plating 1 ml suitable diluted culture broth from each well on Mueller Hinton Agar (MHA) plate. The MBCs were defined as lowest concentration at which antimicrobial agent caused >99.9% reduction of cells. Each assay was done in duplicates and repeated 3 times.

trypsin = settings: cited from earlier work
MRSA ATCC 43300 [16] = assay: Minimum inhibitory concentration (MIC), CLSI M100; format: cell-based, Methicillin-resistant Staphylococcus aureus; settings: Staphylococcus aureus, 24 h
Description: as §4

[17] = biofilm eradication assay, pre-formed biofilm, 18 hr
[18] = biofilm inhibition assay, 24 hr, vs untreated

Q: For `CCCCCC(=O)C(CCCC)c1oc(=O)c(CCCC)c(O)c1CCCC` (stereo not drawn) [elasnin], which activity against chymotrypsin (chymotrypsin) is on record?
A: almost no activities

Q: And the “cell density versus concentration (concentration-response curve)” value (MRSA ATCC 43300 [1])?
A: cell densities did not significantly differ

Q: What about the “activity against pancreatic elastase” value (pancreatic elastase) of the same compound?
A: almost no activities

Q: And the MBEC (MRSA ATCC 43300 [2])?
A: 1.25 µg/mL and 1.25 to 2.5 µg/mL

Q: And the “activity in MBEC assay” value (E. coli ATCC 25922 [3])?
A: No activity

Q: And the MBEC (S. aureus B04 [4])?
A: 2.5 to 5 µg/mL

Q: And the “activity in MBEC assay” value (P. aeruginosa PAO1 [5])?
A: No activity

Q: What about the MBEC (S. aureus ATCC 25923 [6]) of the same compound?
A: 0.625 to 1.25 µg/mL

Q: What about the MBEC (Bacillus subtilis 168 [7]) of the same compound?
A: 1.25 to 2.5 µg/mL

Q: What about the “development of biofilm formation” value (E. coli ATCC 25922 [8]) of the same compound?
A: not influenced

Q: What about the MBIC (S. aureus B04 [9]) of the same compound?
A: 1.25 to 2.5 µg/mL

Q: And the “development of biofilm formation” value (P. aeruginosa PAO1 [10])?
A: not influenced

Q: And the MBIC (S. aureus ATCC 25923 [11])?
A: 1.25 to 2.5 µg/mL

Q: And the MBIC (Bacillus subtilis 168 [12]; Bacillus subtilis 168, 90% reduction of biofilm formation)?
A: 2.5 to 5 µg/mL

Q: What about the biofilms inhibited (Bacillus subtilis 168 [12]; Bacillus subtilis 168, elasnin 1.25 μg/ml) of the same compound?
A: at least 80%

Q: What about the MBIC (MRSA ATCC 43300 [13]) of the same compound?
A: 1.25 to 2.5 µg/mL

Q: And the reduction in cells (MRSA biofilms; [17])?
A: over 50%

Q: And the reduction in matrices (MRSA biofilms; [17])?
A: > 70%

Q: What about the “decrease in density of cells” value (MRSA biofilms; [18]) of the same compound?
A: around 80%

Q: And the “decrease in density of matrices” value (MRSA biofilms; [18])?
A: ~35%

Q: What about the “inhibition of human granulocyte elastase” value [14] of the same compound?
A: inhibits

Q: What about the MBC (MRSA ATCC 43300 [15]; >99.9% reduction of cells) of the same compound?
A: above 100 μg/ml

Q: What about the activity against trypsin (trypsin) of the same compound?
A: almost no activities

Q: With `CN[C@H](CC(C)C)C(=O)N[C@H]1C(=O)N[C@@H](CC(N)=O)C(=O)N[C@H]2C(=O)N[C@H]3C(=O)N[C@H](C(=O)N[C@H](C(=O)O)c4cc(O)cc(O)c4-c4cc3ccc4O)[C@H](O)c3ccc(c(Cl)c3)Oc3cc2cc(c3O[C@@H]2O[C@H](CO)[C@@H](O)[C@H](O)[C@H]2O[C@H]2C[C@](C)(N)[C@H](O)[C@H](C)O2)Oc2ccc(cc2Cl)[C@H]1O` [vancomycin, reference compound] as the compound, how does the “cell density versus concentration (concentration-response curve)” value (MRSA ATCC 43300 [1]) read?
A: sharp decrease in cell density as the concentration increased

Q: What about the MIC (MRSA ATCC 43300 [16]) of the same compound?
A: 0.5 to 2 µg/mL (≈ 0.345 to 1.38 µM)

Q: What about the MBEC (MRSA ATCC 43300 [2]) of the same compound?
A: More than 10 μg/ml

Q: What about the MBC (MRSA ATCC 43300 [15]; Staphylococcus aureus) of the same compound?
A: 20 to 50 µg/mL (≈ 13.8 to 34.5 µM)
